Assay: Pharmacokinetics after oral administration to a human
Conditions: in vivo
[1] = single-dose oral administration of 30 mg to a human

Tmax (oral administration to a human, read-out: median Tmax): 0.5 to 2 h
AUC [1]: 0.484 to 0.489 µg·h/mL
Cmax [1]: 0.122 to 0.147 µg/mL
SMILES: CC[C@@H](Nc1c(Nc2cccc(C(=O)N(C)C)c2O)c(=O)c1=O)c1ccc(C)o1 [formula (1.0A)]

Reference: patent publication US20110009482A1, “METHODS OF TREATING COPD” (Schering Corporation, priority 2007, published 2011)
